Holding throughout (assay type): physicochemical
Series [1] can be described thus: Fish diagram phase study: surfactant concentration (C) and sebum fraction in oil (F) where Type IV microemulsion forms. The settings on record: co-oil with artificial sebum, WOR=1. The protocol:
Methods: Phase behavior studies were performed using equal volume of water and oil (or sebum/co-oil mixtures), giving a water/oil ratio (WOR) equal to one. Preliminary studies were conducted to determine preferred formulations and salinity. […] In another non-limiting aspect, a preferred salinity (S*) for this composition was 0.5% NaCl. As noted throughout this document and contemplated by the inventors, these concentrations can be varied. Additionally, the ingredients can also vary. For example, the surfactants, hydrophobic and hydrophilic linkers, co-oils, and hydrotropes that are discussed throughout this document and known to those of ordinary skill in the art can be used with the present invention. Stock solutions of AOT, hexylglucocide, and sorbitan monooleate at the selected weight ratio were prepared at different total surfactant/linker concentrations ranging from 14.19% to 56.06% wt. The phase studies were carried out in 16×125 mm flat-bottomed tubes; 2.5 mL surfactant solution was added, followed by the addition of co-oil, then sebum oil. The total volume of co-oil and sebum oil required is equivalent to the amount of water present in the 2.5 mL surfactant solution; this is to keep WOR equal to one. The fraction of sebum oil in the oil mixtures is varied from zero (100% vol. co-oil) to one (100% vol. sebum oil). The prepared samples were gently shaken once a day for 3 days and left to equilibrate at room temperature for 2 weeks. Phase diagrams (fish diagrams) were constructed by plotting the total surfactant/linker concentration as a function of the sebum fraction in oil. The microemulsion phase (Type I, II, III, and IV) were obtained by visual observation. The effect of salinity (0.5%, 1.5%, and 3% wt. NaCl) and co-oil on the phase behavior was investigated. The fish tail is observed in the high concentration regime whereas the fish body appears in the low concentration regime. A surfactant concentration 14.19% wt was studied. As discussed throughout this document, however, the surfactant concentration can be varied. At lower surfactant concentrations, slow phase separation kinetics made it difficult to map out the three phase region. The surfactant concentration and the sebum fraction of oil at which the body and tail of the fish meet are denoted by “C” and “F”, respectively. The concentration C for this system, approximately, is 25% wt. surfactant concentration at the fraction F of 0.4, as summarized in Table 4.

Series [2] is described as follows: Equivalent alkane carbon number (EACN) of co-oils. From the text:
(§1) Formulating microemulsions requires the combination of variables that will provide a middle phase microemulsion. Salager et al. (1979) proposed a semi empirical equation that relates the different formulation variables: Ln(S*)=k(EACN)+f(A)−σ+αTΔT Where S* is an optimum salinity, or electrolyte concentration; k is a constant, normally, between 0.1 to 0.17, and EACN is the equivalent alkane carbon number for nonlinear hydrocarbon (e.g. triglycerides). Although preferred salinity concentrations may exist, the inventors contemplate that salinity levels can and will vary. For example, a person of ordinary skill in the art will recognize that salinity levels may vary depending on the desired effects of a given product, protocol, or individual characteristics of a user of the product. For linear hydrocarbon, alkane carbon number (ACN) is applied. The EACN is estimated based on the optimum salinity obtained in the inventors' formulation studies. The higher the optimum salinity, the more the hydrophobicity or EACN of the oil. The effect of alcohol or additives is noted by f(A), σ is a function of the type of the surfactant, α is a constant, and T is the temperature of the system. However, in this study, alcohol is not included and the temperature of the system is constant.
The EACN of squalene is 24 and isopropyl myristate (IPM) is 13. The EACN for squalane is expected to be close to the value for squalene (˜24).

The nature of series [3]: Optimum salinity (S*) of co-oil/sebum oil mixtures in phase behavior studies with the AOT/sorbitan monooleate/hexylglucocide system. The conditions noted are these: NaCl. How it is done: Methods: Phase behavior studies were performed using equal volume of water and oil (or sebum/co-oil mixtures), giving a water/oil ratio (WOR) equal to one. Preliminary studies were conducted to determine preferred formulations and salinity. […] In another non-limiting aspect, a preferred salinity (S*) for this composition was 0.5% NaCl. As noted throughout this document and contemplated by the inventors, these concentrations can be varied. Additionally, the ingredients can also vary. For example, the surfactants, hydrophobic and hydrophilic linkers, co-oils, and hydrotropes that are discussed throughout this document and known to those of ordinary skill in the art can be used with the present invention.
Stock solutions of AOT, hexylglucocide, and sorbitan monooleate at the selected weight ratio were prepared at different total surfactant/linker concentrations ranging from 14.19% to 56.06% wt. The phase studies were carried out in 16×125 mm flat-bottomed tubes; 2.5 mL surfactant solution was added, followed by the addition of co-oil, then sebum oil. The total volume of co-oil and sebum oil required is equivalent to the amount of water present in the 2.5 mL surfactant solution; this is to keep WOR equal to one. The fraction of sebum oil in the oil mixtures is varied from zero (100% vol. co-oil) to one (100% vol. sebum oil). The prepared samples were gently shaken once a day for 3 days and left to equilibrate at room temperature for 2 weeks. Phase diagrams (fish diagrams) were constructed by plotting the total surfactant/linker concentration as a function of the sebum fraction in oil. The microemulsion phase (Type I, II, III, and IV) were obtained by visual observation. The effect of salinity (0.5%, 1.5%, and 3% wt. NaCl) and co-oil on the phase behavior was investigated.
as §1

Where [4] appears, read: oil mixture 20% co-oil / 80% sebum (vol.).
Where [5] appears, read: oil mixture 40% co-oil / 60% sebum.
The mark [6] stands for this setting: oil mixture 60% co-oil / 40% sebum.
Setting [7] is: oil mixture 80% co-oil / 20% sebum.

Like-named read-outs stand apart in the source and are kept apart here.

Consider `CCCCCCCCCCCC(=O)OCC` [EL, ethyl laurate], for which the figures for the “Concentration (C) of surfactant at which Type IV microemulsion forms” value (“Concentration (C) of surfactant” below) in series [1] ([NaCl] 0.50%) and in series [1] ([NaCl] 1.50%) were 25 % wt and 38 % wt, respectively. The “sebum fraction in oil (F) at which Type IV microemulsion forms” value (shortened to “sebum fraction in oil (F)”) in series [1] ([NaCl] 0.50%) stood at 0.4; in series [1] ([NaCl] 1.50%), 0.02. Moreover, the EACN in series [2] and in series [2] (listed as Ethyllaurate (EL)) was less than 13 each time. Further, the “S* (optimum salinity)” value in series [3] (100% co-oil / 0% sebum) is given as 1-1.5%; in series [3] (setting [4]) it was less than 0.5%; in series [3] (setting [5]), less than 0.5%; in series [3] (setting [6]), less than 0.5%; in series [3] (setting [7]), 0.5-0.7%.
For `CCCCCCCCCCCCCC(=O)OC(C)C` [IPM, isopropyl myristate], the “Concentration (C) of surfactant” value in series [1] ([NaCl] 0.50%) was 25 % wt; in series [1] ([NaCl] 1.50%) it was 38 % wt. Besides, the “sebum fraction in oil (F)” value turned out to be 0.5 in series [1] ([NaCl] 0.50%) and 0.175 in series [1] ([NaCl] 1.50%). Moreover, the EACN in series [2] amounted to 13. In addition, the “S* (optimum salinity)” value in series [3] (100% co-oil / 0% sebum) was 3.5%; in series [3] (setting [4]) it was “less than 0.5%”; in series [3] (oil mixture 20% co-oil / 80% sebum (vol.), listed as Isopropyl Myristate (IPM)) it was less than 0.5%; in series [3] (setting [5]), 0.5%; in series [3] (setting [6]) it was 0.8%; in series [3] (setting [7]) it was 1.5%.
Turning to `CC(C)CCCC(C)CCCC(C)CCCCC(C)CCCC(C)CCCC(C)C` (centres unmarked) [Squalane, 2,6,10,15,19,23-Hexamethyltetracosane], the “Concentration (C) of surfactant” value in series [1] ([NaCl] 0.50%) is 25 % wt; in series [1] ([NaCl] 1.50%), 35 % wt; in series [1] ([NaCl] 3.00%), 42 % wt. Moreover, the “sebum fraction in oil (F)” value in series [1] ([NaCl] 0.50%) is 0.35; in series [1] ([NaCl] 1.50%) it was 0.2; in series [1] ([NaCl] 3.00%), 0.15.
For `CC(C)=CCC/C(C)=C/CC/C(C)=C/CC/C=C(\C)CC/C=C(\C)CCC=C(C)C` [Squalene], the “Concentration (C) of surfactant” value in series [1] ([NaCl] 0.50%) is roughly 25 % wt. For the same compound, the “sebum fraction in oil (F)” value is given as 0.45 in series [1] ([NaCl] 0.50%) and 0.4 in series [1] ([NaCl] 0.50%, listed as squalene). Also, the EACN in series [2] is given as 24.

The values are drawn from patent US20060165739A1, “Alcohol-free microemulsion composition” (Mary Kay Inc., priority 2005, published 2006).
